These results are taken from ChEMBL document CHEMBL1201862, “PubChem BioAssay data set” (2004).

Structures are written as SMILES.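 Dose response: 5 concentrations. Exposure: 48 h. Format: 96-well plates. Endpoint: linear interpolation; highest concentration if not reached. At the GI50, growth is halved.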 The source made the active and inactive calls. Rule as the data show it: active = GI50 up to about 1.1 µM and inactive = higher.

Some test systems named below: UACC-257; UO-31; MOLT-4; SK-MEL-5; OVCAR-4; SF-295; SNB-19; SN12C; M14; SNB-75; SF-268; Malme-3M; DMS-114; CAKI-1; BT-549; MDA-N; DU-145; MDA-MB-231; SR; SK-OV-3.
Holding throughout (assay): inhibition of tumour cell growth, NCI panel, 48 h

Regarding `CC1=N/C(=C\c2c(O)ccc3ccccc23)C(=O)O1`, the GI50 with UACC-257, in the test with UO-31, in the test on MOLT-4, in the test on SK-MEL-5, with OVCAR-4 and in the test on SF-295 was > 100 µM (inactive) throughout. The GI50 with SNB-19 was > 100 µM (inactive); with SN12C, > 100 µM (inactive); in the test on M14, > 100 µM (inactive); in the test on SNB-75, 0.849 µM (active); in the test with SF-268, > 100 µM (inactive); in the test with Malme-3M, > 100 µM (inactive). In the test with DMS-114, the GI50 was > 100 µM (inactive).

For the compound `CCOC(=O)C1=C(C)OC(=O)[C@@]2(OC)C=C(Cl)[C@@]12C`, the GI50 in the test on CAKI-1, in the test with UACC-257, in the test with BT-549, with UO-31, with MDA-N and in the test with MOLT-4 was > 100 µM (inactive) throughout. The GI50 in the test on DU-145, in the test with SK-MEL-5, in the test on OVCAR-4, in the test on SF-295, in the test on MDA-MB-231 and in the test with SNB-19 was > 100 µM (inactive) in each case. Further, the GI50 with SR, in the test with SN12C, in the test with SK-OV-3, with M14, in the test on SNB-75 and with SF-268 was > 100 µM (inactive) in each case. In addition, in the test with Malme-3M, the GI50 is > 100 µM (inactive).

For the compound `COC(=O)C1=C(C)NC2=C(C(=O)c3ccccc32)C1c1cn(-c2ccccc2)nc1-c1ccccc1` (stereo not given), the GI50 in the test on CAKI-1 was > 100 µM (inactive); in the test with UACC-257 it was > 85.3 µM (inactive); in the test on BT-549 it was 63.7 µM (inactive); in the test on UO-31, 3.91 µM (inactive); in the test with MDA-N it was > 61.7 µM (inactive); in the test with MOLT-4, 2.96 µM (inactive). The GI50 in the test with DU-145 is > 100 µM (inactive); with SK-MEL-5, > 100 µM (inactive); with OVCAR-4, > 100 µM (inactive); in the test on SF-295, 34.5 µM (inactive); in the test on MDA-MB-231 it was > 100 µM (inactive); with SNB-19, > 48.1 µM (inactive). The GI50 with SR is 2 µM (inactive); with SN12C, > 100 µM (inactive); in the test on SK-OV-3 it was > 100 µM (inactive); with M14 it was > 100 µM (inactive); with SNB-75, 1.56 µM (inactive); in the test on SF-268, > 45.6 µM (inactive). In addition, in the test on Malme-3M, the GI50 was > 84.7 µM (inactive).

Turning to `CCOP(=O)(OCC)/C(C#N)=C(\C)c1ccco1`, the GI50 in the test with CAKI-1, in the test with UACC-257, in the test on BT-549, in the test with UO-31, in the test with MDA-N and in the test with MOLT-4 was > 10 µM (inactive) throughout. The GI50 in the test with DU-145, in the test with SK-MEL-5, with OVCAR-4, in the test on SF-295, in the test on MDA-MB-231 and in the test with SNB-19 was > 10 µM (inactive) each time. For the same compound, the GI50 in the test on SR, in the test with SN12C, with SK-OV-3, in the test on M14, with SNB-75 and in the test on SF-268 was > 10 µM (inactive) throughout. Besides, the GI50 in the test with Malme-3M was > 10 µM (inactive).

For the compound `Cc1ccccc1C(C#N)/C(=N/NC(N)=S)C(=O)Nc1c(C)cccc1C` (stereo not given), the GI50 in the test on UACC-257 was > 100 µM (inactive); with UO-31 it was > 100 µM (inactive); with MOLT-4 it was 88.1 µM (inactive); with SK-MEL-5, 46.3 µM (inactive); in the test with OVCAR-4, > 100 µM (inactive); in the test on SF-295, > 100 µM (inactive). For the same compound, the GI50 in the test on SNB-19 is > 100 µM (inactive); with SN12C it was > 100 µM (inactive); in the test with M14, > 100 µM (inactive); in the test with SNB-75 it was > 100 µM (inactive); in the test with SF-268, > 100 µM (inactive); in the test on Malme-3M, 83.8 µM (inactive). The GI50 with DMS-114 was 10.4 µM (inactive).

Take `Cc1cccc(C)c1NC(=O)C(=O)Cc1nc2ccccc2s1`: the GI50 in the test with CAKI-1, in the test on UACC-257, with UO-31, in the test on SK-MEL-5, in the test on OVCAR-4 and in the test on SF-295 was > 100 µM (inactive) throughout. Moreover, the GI50 in the test with SNB-19 was > 100 µM (inactive); in the test on SN12C, > 100 µM (inactive); in the test with SK-OV-3 it was > 100 µM (inactive); in the test on M14, > 100 µM (inactive); in the test with SNB-75, 27.5 µM (inactive); in the test on SF-268, > 100 µM (inactive). Also, the GI50 with Malme-3M and in the test on DMS-114 was > 100 µM (inactive) each time.

Regarding `CC(c1ccccc1)N1CC(C)(c2ccccc2)N(O)C(c2ccccc2)C1C` (stereo not given), the GI50 in the test on UACC-257 is 13.5 µM (inactive); in the test with UO-31, 3.23 µM (inactive); in the test on MOLT-4 it was 3.47 µM (inactive); in the test with SK-MEL-5 it was 7.82 µM (inactive); in the test on SF-295 it was 7.85 µM (inactive); in the test on SNB-19 it was 5.92 µM (inactive). Moreover, the GI50 with SK-OV-3 was 22.8 µM (inactive); in the test with SNB-75, 6.03 µM (inactive); in the test with SF-268, 4.15 µM (inactive); in the test with Malme-3M it was 18.8 µM (inactive); in the test with DMS-114, 5.33 µM (inactive).

On to `Clc1ccc(OCCSCCCCCCCCCCSCCOc2ccc(Cl)cc2)cc1`, for which the GI50 in the test with CAKI-1, with UACC-257, in the test on UO-31, in the test with MOLT-4, in the test on SK-MEL-5 and with SF-295 was > 100 µM (inactive) in each case. Also, the GI50 in the test with SNB-19, with SN12C, in the test on SK-OV-3, with SNB-75, in the test on SF-268 and in the test with Malme-3M was > 100 µM (inactive) in each case. Also, the GI50 in the test with DMS-114 is > 100 µM (inactive).

Consider `CO[C@H]1C[C@H](n2cc(C)c(=O)[nH]c2=O)O[C@@H]1CO`, for which the GI50 in the test with CAKI-1, in the test on UACC-257, in the test with BT-549, in the test on UO-31, in the test on MDA-N and with MOLT-4 was > 100 µM (inactive) in each case. Also, the GI50 with DU-145, in the test with SK-MEL-5, in the test on OVCAR-4, with SF-295, in the test with MDA-MB-231 and in the test on SNB-19 was > 100 µM (inactive) each time. The GI50 in the test on SR, with SN12C, in the test on SK-OV-3, with M14, in the test on SNB-75 and in the test with SF-268 was > 100 µM (inactive) in each case. Moreover, the GI50 with Malme-3M is > 100 µM (inactive).
